Like-named read-outs stand apart in the source and are kept apart here.
How the values were obtained:
PfCCT(528–795) K663A [1] = target: T1, PfCCT(528–795) K663A (Plasmodium falciparum, UniProt Q8IEE9, DEL720-737/K663A); assay: Continuous coupled colorimetric enzyme activity assay (PPase/PNP/MESG); format: biochemical; settings: refers to a phosphohydrolase activity; ChoP fixed 5 mM; read-out: KM,CTP
Description: The presence of Cho in the active site at least partially stabilizes the K663 side chain, while ChoP or CDPCho accommodation renders this residue fully visualized. The K663 terminal amino moiety points towards the phosphate group of ChoP or both phosphate moieties of CDPCho, in somewhat different conformations (Fig. 3e and Supplementary Fig. S3). These structural insights showing variable detection and interactions of K663 prompted us to an in-depth definition of its role throughout the course of the catalytic mechanism. We interrogated the functionality of this residue by site directed mutagenesis followed by biochemical analysis. […] The enzymatic activity was monitored by a coupled pyrophosphatase (PPase) assay and consisted of two consecutive steps: the cleavage of the byproduct pyrophosphate into two phosphates and the addition of phosphates to a nucleotide derivative, resulting a chromophore substance. […] The accumulation of free phosphate in the absence of the substrate, ChoP, argued for a CTP phosphohydrolase (CTP → CDP + Pi) activity of the K663A mutant (Supplementary Fig. S4). […] For reliable characterization of ligand interactions of this lysine, we measured the equilibrium ligand binding of CDPCho and CTP to PfCCT(528–795) K663A (Table 2 and Supplementary Fig. S4). […]

PfCCT(528–795) T762A [2] = assay: as above; format: biochemical, Plasmodium falciparum
Experimental: (§1) Enzyme activity measurements were performed as described previously, using a continuous coupled colorimetric assay with pyrophosphatase (PPase), purine nucleoside phosphorylase (PNP) auxiliary enzymes and the auxiliary substrate 7-methyl-6-thioguanosine (MESG)[16],[30],[39]. For CTP substrate titrations, CTP concentration was varied between 100 μM and 2 mM while ChoP concentration was kept constant at 5 mM. For ChoP titrations, ChoP concentration was varied between 0.5 mM and 20 mM while CTP concentration was kept constant at 1 mM. Initial velocities were calculated from the first 10% of the progress curves using phosphate calibration as reference. Due to the low activity of PfCCT(581–775) and PfCCT(528–795) T761A, T762A variants, the enzyme was used at 10 μM concentration and the slope of the absorbance change was determined after monitoring the reaction for 20 minutes. For measurements with PfCCT(528–795) K663A the following reagent concentrations were used in the enzyme assay: [PPase] = 0.17 U·ml^−1, [PNP] = 1.25 U·ml^−1, [MESG] = 0.1 mM, [Mg^2+] = 5 mM and [PfCCT(528–795) K663A] = 10 μM, to yield adequate signal-to-noise ratio (S/N > 10). Three independent experiments were performed for CTP and ChoP kinetic titrations of PfCCT(528–795) K663A. Global fit of CTP and ChoP kinetic titrations for each enzyme variant was performed in Origin 8.6 using Michaelis–Menten equation, to yield a single kcat parameter.

PfCCT(528–795) T761A [3] = assay: as above; format: biochemical, Plasmodium falciparum
Experimental: as §1

PfCCT(581–775) [4] = target: T2, PfCCT(581–775) (Plasmodium falciparum, UniProt P49587, DEL194-211); assay: Saturation Transfer Difference NMR (STD-NMR) ligand binding; settings: 50 µM PfCCT(581-775), 283 K
T2 construct: The PfCCT(581–775) construct was obtained using previously described PfCCT(528–795); 6xHis (TEV-cleavable) (N, cleaved yes); made in house; host or cells: E. coli BL21 (DE3)
Experimental: In order to provide structural insights into the mechanism of action of PfCCT, we set out to crystallize the constitutively active C-terminal catalytic domain of PfCCT. Several constructs were tested and our attempts were successful only in case of PfCCT(581–775) that corresponds to the exact region visible in the crystal structure of RnCCT (PDB: 3HL4)[20] (Fig. 1a). […] (Table 1 and Supplementary Fig. S1). We further assessed the functionality of PfCCT(581–775) by characterizing its substrate and product binding ability. […] Saturation Transfer Difference Nuclear Magnetic Resonance (STD-NMR) experiments indicated STD signal of CTP, ChoP and CDPCho bound to PfCCT(581–775) at 1 mM, 4 mM and 1 mM concentrations, respectively (Supplementary Fig. S1). This latter result is consistent with previously observed unusually low ChoP affinity of PfCCT[16]. We concluded that PfCCT(581–775) is compatible with substrate and product recognition and may be amenable to structural studies provided that its compromised enzymatic function is taken into account in structure-based interpretations. It is likely that the drop of PfCCT(581–775) enzyme activity is due to the elimination of the C-terminal flanking part as similarly located truncations in the RnCCT catalytic domain also led to severe loss of activity[28],[29]. […]
Kinetic data are fitted with the Michaelis–Menten equation. […] Values of the measured kinetic and thermodynamic parameters and their errors […]
(black) of 50 µM PfCCT(581-775) in 20 mM Tris/HCl pH 7.5, 150 mM NaCl and 2 mM EtSH are shown in presence of c) 1 mM CTP, d) 4 mM ChoP and e) 1 mM CDPCho. […] The 1D 1H STD-NMR spectra were recorded on a Bruker 500 MHz instrument at 283 K with 256 scans and selective saturation of protein resonances at 0.922 ppm using a series of Gaussian shaped pulses (20 ms, 1 ms delay between the pulses). […] All 1D 1H NMR spectra were recorded […]

PfCCT(528–795) T762A [5] = assay: Equilibrium ligand binding by isothermal titration calorimetry (ITC); set-up: species or system Plasmodium falciparum; settings: 20 °C, pH 7.5, read-out: Kd,CTP
Experimental: (§2) Calorimetric measurements were performed on an ITC 200 titration calorimeter (Malvern) at 20 °C. The protein samples were dialyzed against 20 mM HEPES/NaOH pH 7.5, 100 mM NaCl, including 0.5 mM Tris(2-carboxyethyl)phosphine (TCEP) as reducing agent. CTP and CDPCho were diluted from a concentrated stock into the dialysis buffer with subsequent pH adjustment. Concentration of the titrating nucleotide ligands were determined using molar extinction coefficients 9000 M^−1 cm^−1 at 271 nm for CTP and 5000 M^−1 cm^−1 at 260 nm for CDPCho[16]. In the experimental setup, the cell of the instrument was filled with protein and the syringe with the ligand. The titrations typically included 19 steps of injection with 2 μl of ligand per injection spaced 180 s apart from each other, with the injection syringe rotating at 750 r.p.m. The data were analyzed using MICROCAL ORIGIN software following the directions of the manufacturer. To account for dilution, the invariant integrated heat value of the last 3–5 data points was subtracted from all data points. The one set of independent sites binding model was applied to data for determination of thermodynamic parameters: dissociation constant (Kd), stoichiometry (N), enthalpy (ΔH) and entropy (ΔS). […]

PfCCT(528–795) T761A [6] = assay: as above; set-up: species or system Plasmodium falciparum; settings: 20 °C, pH 7.5, read-out: Kd,CTP
Experimental: as §2

PfCCT(581–775) [7] = target: T2, PfCCT(581–775); assay: Continuous coupled colorimetric enzyme activity assay (PPase/PNP/MESG); format: biochemical; settings: CTP varied 100 μM–2 mM, ChoP fixed 5 mM
Experimental: as §1

[8] = target: T3, PfCCT(528–795) Y626F/Q636A (Plasmodium falciparum, UniProt Q8IEE9, DEL720-737/Q636A/Y626F); assay: as above; format: biochemical
Experimental: as §1

PfCCT(528–795) [9] = target: T4, PfCCT(528–795) (Plasmodium falciparum, UniProt P49587, DEL194-211); set-up: method as in Nagy et al.[16]; settings: ref Nagy et al.[16], cited from earlier work
T4 construct: previously described PfCCT(528–795) lacking the lysine-rich Plasmodium specific loop (720–737); His-tag; made in house

PfCCT(528–795) K663A [10] = target: T1, PfCCT(528–795) K663A; assay: Equilibrium ligand binding by isothermal titration calorimetry (ITC); settings: 20 °C
Experimental: (§3) Calorimetric measurements were performed on an ITC 200 titration calorimeter (Malvern) at 20 °C. The protein samples were dialyzed against 20 mM HEPES/NaOH pH 7.5, 100 mM NaCl, including 0.5 mM Tris(2-carboxyethyl)phosphine (TCEP) as reducing agent. CTP and CDPCho were diluted from a concentrated stock into the dialysis buffer with subsequent pH adjustment. Concentration of the titrating nucleotide ligands were determined using molar extinction coefficients 9000 M^−1 cm^−1 at 271 nm for CTP and 5000 M^−1 cm^−1 at 260 nm for CDPCho[16]. In the experimental setup, the cell of the instrument was filled with protein and the syringe with the ligand. The titrations typically included 19 steps of injection with 2 μl of ligand per injection spaced 180 s apart from each other, with the injection syringe rotating at 750 r.p.m. The data were analyzed using MICROCAL ORIGIN software following the directions of the manufacturer. To account for dilution, the invariant integrated heat value of the last 3–5 data points was subtracted from all data points. The one set of independent sites binding model was applied to data for determination of thermodynamic parameters: dissociation constant (Kd), stoichiometry (N), enthalpy (ΔH) and entropy (ΔS). Due to the low apparent affinity, the N value was fixed to a constant value of 1 in CTP titrations to PfCCT(528–795) K663A according to the low c value ITC data analysis protocol[40],[41]. For CTP and CDPCho titrations of PfCCT(528–795) K663A, and CTP titrations of T761A and T762A variants of PfCCT(528-795), mean and SD from two independent experiments are provided, whereas for CDPCho titrations of PfCCT(581–775) and PfCCT(528-795) mean and SD from three independent experiments are provided. For PfCCT(528-795) (Y626F/Q636A), errors of model fit to data of a single ligand binding experiment are given.

PfCCT(528–795) [11] = target: T4, PfCCT(528–795); assay: as above; settings: 20 °C
Experimental: as §3

[12] = target: T3, PfCCT(528–795) Y626F/Q636A; assay: as above; settings: 20 °C, pH 7.5, single experiment, errors of model fit
Experimental: as §3

[13] = CTP varied 100 μM–2 mM, ChoP fixed 5 mM, read-out: KM,CTP
[14] = ChoP varied 0.5–20 mM, CTP fixed 1 mM, read-out: KM,ChoP

T1 sequence (Q8IEE9 528-795, stated change not applied): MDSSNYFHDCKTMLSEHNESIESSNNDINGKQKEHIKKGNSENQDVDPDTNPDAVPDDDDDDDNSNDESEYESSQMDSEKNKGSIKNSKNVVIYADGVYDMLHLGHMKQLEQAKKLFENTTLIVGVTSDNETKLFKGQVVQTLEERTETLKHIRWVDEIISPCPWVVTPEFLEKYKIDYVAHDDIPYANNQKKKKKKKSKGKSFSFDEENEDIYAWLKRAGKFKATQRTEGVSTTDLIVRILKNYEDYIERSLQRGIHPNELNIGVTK
T3 sequence (Q8IEE9 528-795, stated change not applied): as above

Compound: Nc1ccn([C@@H]2O[C@H](COP(=O)(O)OP(=O)(O)OP(=O)(O)O)[C@@H](O)[C@H]2O)c(=O)n1 [CTP]
- Km (PfCCT(528–795) K663A [1]): 70 ± 20 µM
- Km (PfCCT(528–795) T762A [2]; [13]): 610 ± 70 µM
- Km (PfCCT(528–795) T761A [3]; [13]): 1270 µM
- STD-NMR signal of ligand bound to enzyme (PfCCT(581–775) [4]; ligand 1 mM): STD signal
- Kd (PfCCT(528–795) T762A [5]): 170 ± 12 µM
- Kd (PfCCT(528–795) T761A [6]): 170 ± 35 µM
- Km (PfCCT(581–775) [7]): 1100 µM
- Km [8, 13]: 170 ± 10 µM
- Km (PfCCT(528–795) [9]; read-out: KM,CTP): 170 ± 20 µM
- ΔGCTP (PfCCT(528–795) K663A [10]; pH 7.5, N fixed to 1): -4.4 ± 0.1 kcal/mol
- −TΔSCTP (PfCCT(528–795) K663A [10]; pH 7.5, N fixed to 1): -10.5 ± 0.6 kcal/mol
- Kd (PfCCT(528–795) K663A [10]; pH 7.5, N fixed to 1 (low c value protocol), read-out: Kd,CTP): 520 ± 50 µM
- ΔGCTP (PfCCT(528–795) [11]; pH 7.5): -5.7 ± 0.1 kcal/mol
- ΔHCTP (PfCCT(528–795) [11]; pH 7.5): -8.6 ± 0.3 kcal/mol
- −TΔSCTP (PfCCT(528–795) [11]; pH 7.5): 3.0 ± 0.4 kcal/mol
- Kd (PfCCT(528–795) [11]; pH 7.5, read-out: Kd,CTP): 60 ± 2 µM
- ΔGCTP [12]: -5.7 ± 0.1 kcal/mol
- ΔHCTP [12]: -10.8 ± 0.1 kcal/mol
- −TΔSCTP [12]: 5.1 ± 0.2 kcal/mol
- Kd ([12]; read-out: Kd,CTP): 60 ± 2 µM

Compound: C[N+](C)(C)CCOP(=O)(O)O [ChoP, phosphocholine]
- Km (PfCCT(528–795) T762A [2]; [14]): 2100 µM
- Km (PfCCT(528–795) T761A [3]; [14]): 3700 µM
- STD-NMR signal of ligand bound to enzyme (PfCCT(581–775) [4]; ligand 4 mM): STD signal
- Km [8, 14]: 1600 µM
- Km (PfCCT(528–795) [9]; read-out: KM,ChoP): 1950 µM

From PMC6060094, “Structural determinants of the catalytic mechanism of Plasmodium CCT, a key enzyme of malaria lipid biosynthesis” (Scientific Reports, 2018)
